{"source": "patent US10632172B2", "about": "“Injectable self-assembling antibacterial peptide hydrogels” (New Jersey Institute of Technology, priority 2018, dated 2020)", "key": {"[1]": {"experiment": "Rheology of CASP hydrogels/solutions (strain sweep, shear recovery)", "format": "physicochemical", "details": "for storage modulus (G') at 1% strain: 2% w/v hydrogels/solutions", "description": "For rheology, 2% peptide hydrogel was transferred between a plate and a 4 mm parallel plate geometry with a gap of 350 μm, on a Malvern Kinexus Ultra+rheometer. Strain sweep (0.1-100% strain at 1 Hz) and shear recovery (1% strain at 1 Hz for 5 min, 100% strain at 1 Hz for 1 min, and 1% strain at 1 Hz for 5 min) were carried out."}, "NIH 3T3 fibroblasts": {"system": "NIH 3T3 fibroblasts", "experiment": "In vitro cytocompatibility (LIVE/DEAD viability/cytotoxicity kit)", "format": "cell-based", "details": "0.002% peptide in media, day 3", "description": "For in vitro cytocompatibility tests, cultured were NIH 3T3 fibroblasts in DMEM supplemented with 10% FBS and 1× penicillin-streptomycin in T75 flasks. After the fibroblasts reached confluency, they were seeded in a 96-well plate at 2,500 cells/well. 0.002% CASP-K6 (n=6) and a control (media with sucrose and phosphate-buffered saline (PBS), n=6) were tested. For the former, the peptide was supplemented in the media, and for the control, 298 mM sucrose and PBS was supplemented to the media. The sucrose and PBS supplemented in the media control corresponded to the quantities required to formulate CASP-K6. Media was changed daily for 3 days and cytocompatibility was assessed on day 3 using a LIVE/DEAD viability/cytotoxicity kit (images were taken on a Nikon Eclipse Ti—S inverted fluorescent microscope). A NIH ImageJ was used to quantify cell viability."}, "[2]": {"experiment": "In vivo subcutaneous implantation of hydrogel, histology", "design": "species or system Wistar rats", "description": "To test the in vivo persistence of the peptide, Wistar rats were subcutaneously injected with 200 μL CASP-K6 hydrogel (2% w/v). Because of the thixotropic nature of the hydrogel, it reconstituted post-injection in the subcutaneous pocket. At prescribed time intervals (1, 3, and 7 days), the rats were sacrificed and the dorsal skin covering the implant was removed for histological examination. Used was hematoxylin and eosin (H&E) FIGS. 15A-15B, and Masson's trichrome staining FIGS. 15C-15D) to analyze the tissue sections.\nFor in vivo subcutaneous implantations, NJIT-Rutgers animal care facility was used. Injected was ˜200 μL CASP-K6 hydrogels in the subcutaneous pocket (dorsal aspect) of female Wistar rats (˜250 g, Charles River) (four implants (n=4) per rat). At the specified time points (1 day, 3 day, and 7 day), the animals were sacrificed and regions around the implant were excised, fixed, and processed. Hematoxylin and eosin (H&E) and Masson's trichrome staining was used for histologic analysis."}, "[3]": {"system": "Pseudomonas aeruginosa PAO1", "experiment": "Colony disruption on agar plates (inhibition zones, SEM)", "format": "cell-based", "details": "P. aeruginosa PAO1 on agar, peptide hydrogels/solutions applied, overnight", "description": "Colonies of the gram-negative bacteria Pseudomonas aeruginosa PAO1 were grown on agar and CASP solutions were applied to assess their colony-disruption ability (FIGS. 9A-9E). Cationic amphiphilic peptide nanofibers show noticeable bactericidal effect. This effect was correlated with the terminal charge on the cationic nanofibers (FIGS. 9C-9D), consistent with the hypothesis that a greater terminal charge facilitates the association of the peptide nanofibrils with the bacterial cell membrane.\nTo test the efficacy of CASPs against bacterial colonies, Pseudomonas aeruginosa (PAO1) were cultured on agar plates and peptide hydrogels/solutions were placed on these bacteria cultures during the exponential growth phase to evaluate the antibacterial properties. The experiment to test antibacterial activity of the peptides was carried out over 4 days. On day 1, an agar plate was streaked with the bacteria using an inoculating loop. The streaked plate was then kept in an incubator to allow for bacterial growth overnight. Day 2 consisted of inoculating one colony of bacteria from the streaked plate into a glass tube filled with 5 mL of the Luria-Bertani (LB) broth. The tube is then set aside to allow for the colony to grow overnight in the LB broth. The following day the agar plates were labeled with the type of bacteria, concentration used, treatment being tested, and the date. […]"}, "[4]": {"experiment": "Hydrogel formation after addition of 10xPBS to 2% (w/v) peptide solution in 298 mM sucrose", "format": "physicochemical", "details": "2% (w/v) in 298 mM sucrose, 10xPBS pH 7 added 1:9", "description": "In one example, after purification and lyophilization, the peptides are dissolved in 298 mM sucrose solution to prepare 2% (w/v) solutions. After the addition of 10×PBS (pH 7) to the peptide solution (in a 1:9 volumetric ratio), hydrogels form within seconds. Biofilms of the gram-negative bacteria Pseudomonas putida are grown on agar plates and CASP solutions are applied on top of established biofilms to test their ability to disrupt the bacterial colony. Cationic amphiphilic peptide nanofibers show noticeable bactericidal effect on biofilms. This effect is correlated with the terminal charge on the cationic nanofibers, consistent with initial hypothesis contained herein that higher terminal charge facilitates the association of the peptide nanofibrils with the bacterial cell membrane. The effect of the antibacterial hydrogel is localized on the biofilm.\nIn this example, a series of CASPs was explored. The series of CASPs were synthesized through solid-phase peptide synthesis and verified by mass spectrometry as shown in FIGS. 3A-3D. After purification and lyophilisation, the peptides were dissolved in 298 mM sucrose solution to prepare 2% (w/v) solutions. After the addition of 10×PBS (pH 7) to the peptide solution (in a 1:9 volumetric ratio), CASP-K2 through CASP-K6 formed hydrogels within seconds."}, "[5]": {"details": "cited from earlier work"}}, "note": "Where “and” joins values, the source holds several entries; their conditions need not be identical. Equal entries are not always repeated. Entries after “also recorded” stand apart in the source; their conditions may differ."}
{"substance": "Ac-KKKKKKSLSLSLSLSLSLKKKKKK-NH2 [CASP-K6]", "values": [{"measurement": "storage modulus (G') at 1% strain", "setting": "[1]", "result": "~210", "unit": "Pa"}, {"measurement": "storage modulus of hydrogel (rheometry)", "setting": "[1]; strain not stated", "result": "> 100 Pa and > 200 Pa"}, {"measurement": "shear strain at which the gel liquefied (G'<G'')", "setting": "[1]; strain sweep", "result": "> 30", "unit": "% strain"}, {"measurement": "toxicity with respect to mammalian cells (cytocompatibility)", "setting": "NIH 3T3 fibroblasts", "result": "low toxicity"}, {"measurement": "in vivo persistence", "setting": "[2]; rat, in vivo, sc", "result": "persists in vivo"}, {"measurement": "in vivo persistence of subcutaneous implant (remained observable)", "setting": "[2]; rat, in vivo, sc", "result": "at least 7 days"}, {"measurement": "local/systemic toxicity or mortality", "setting": "[2]; subcutaneous implants in rats, up to 7 days", "result": "did not induce any local/systemic toxicity or mortality"}, {"measurement": "disruption of bacterial colonies / antibacterial activity", "setting": "[3]", "result": "very effective in disrupting the bacterial layer; also recorded: comparable antibacterial activity"}]}
{"substance": "KKKKKKKKSLSLSLSLSLSLKKKKKKKK (CASP-K8) [cationic amphiphilic self-assembling peptide]", "values": [{"measurement": "storage modulus (G') at 1% strain", "setting": "[1]", "result": "~30", "unit": "Pa"}, {"measurement": "hydrogel formation", "setting": "[4]", "result": "failed to form a gel; also recorded: remained in solution"}, {"measurement": "disruption of bacterial colonies / antibacterial activity", "setting": "[3]", "result": "very effective in disrupting the bacterial layer"}]}
{"substance": "KKKKSLSLSLSLSLSLKKKK (CASP-K4) [cationic amphiphilic self-assembling peptide]", "values": [{"measurement": "storage modulus (G') at 1% strain", "setting": "[1]", "result": "~430", "unit": "Pa"}]}
{"substance": "KKSLSLSLSLSLSLKK (CASP-K2) [cationic amphiphilic self-assembling peptide, previously reported as a multifunctional scaffold]", "values": [{"measurement": "storage modulus (G') at 1% strain", "setting": "[1]", "result": "~620", "unit": "Pa"}]}
{"substance": "LL-37: natural antimicrobial peptide", "values": [{"measurement": "enzymatic degradation in vivo", "setting": "[5]", "result": "susceptible to enzymatic degradation in vivo within a time period of hours"}]}
